This series is described as follows: Skin absorption after topical application to a hand, disappearance of red color. The format is in vivo, human.

Each structure is given as a SMILES string.

Consider `CO[C@H]1/C=C/O[C@@]2(C)Oc3c(C)c(O)c4c(O)c(c(/C=N/N5CCN(C)CC5)c(O)c4c3C2=O)NC(=O)/C(C)=C\C=C\[C@H](C)[C@H](O)[C@@H](C)[C@@H](O)[C@@H](C)[C@H](OC(C)=O)[C@@H]1C` [rifampicin], for which the “Time until absorbed in skin tissue (red color disappeared)” value was in the range of 1 to 2 h.

The values are drawn from patent US10709702B2, “Treatment of skin disorders by topical administration of VEGF inhibitors” (AMD THERAPEUTICS LLC, priority 2015, dated 2020).
